“And” between values parts separate entries of the source, which are not always exact repeats. Equal entries are not always repeated.
Key:
[1] = target: T1, CB2 (Homo sapiens, UniProt P34972); experiment: CB2 internalization flow cytometry assay in whole blood of working-age healthy participants; format: cell-based; conditions: for IC50: B-cells
T1 construct: measured in whole blood samples from nine different healthy human volunteers of working-age; endogenous in cells; host or cells: B-cells (and basophils and other leukocytes) in human whole blood
Method: FIG. 7: IC50 determination for CB2 internalization on B-cells in response to RG7774 in whole blood of healthy participants. Human whole blood was incubated with RG7774 for 1 hour at 37° C. followed by incubation with the anti-human CB2 antibody 1/622. The expression of CB2 on the surface of B-cells was analyzed using a lineage marker mix specific for B-cells (CD45^+ CD3^− CD14^− CD19^+) and T-cells (CD45^+ CD3^+ CD14^−). The B/T-cell CB2 MFI ratio was calculated and normalized to baseline. 0 μM was set as 100% baseline receptor expression.
The CB2 is member of the G-protein coupled receptor family which upon ligand (agonist) binding can respond by internalization of the receptor into the endosomal compartment of the cell, thereby removing the respective receptor form the cell surface and initiating downstream signaling effects (Calebiro, D. et al. Best Pract Res Clin Endocrinol Metab 2018:32 (2):83-91). Such changes in cell surface expression of CB2 on B-cells in response to the treatment with the CB2 agonist RG7774 were measured in whole blood samples from nine different healthy human volunteers of working-age. Whole blood samples were treated with eight compound concentrations in duplicates to determine IC50 of RG7774 using a newly developed flow cytometry assay.
Na-Heparin whole blood samples were incubated in a 96-well plate with RG7774 for 1 hour at 37° C. in a humidified incubator with 5% CO2. Samples were harvested from the 96-well plate and 100 μl were transferred to labeled 5 ml Polystyrene Round Bottom Tubes (Becton Dickinson, Cat #352052). The unlabeled anti-CB2 antibody clone 1/622 was diluted to 50μg/ml with cell staining buffer (BioLegend, Cat #420201). 100 μl diluted anti-CB2 antibody was added to each tube and incubated for 30 minutes at 4° C. For the red blood cell lysis 10× BD PharmLyse lysing buffer (Becton Dickinson, Cat #55899) was diluted to 1× with distilled water and prewarmed to approximately 20° C. After the CB2 antibody incubation 2 ml of prewarmed 1× BD PharmLyse lysing buffer was added to each tube, mixed and incubated for 15 minutes at approximately 20° C. After the incubation, the tubes were centrifuged for 5 minutes at 250×g and 4° C. The supernatant was removed completely, cells were washed two times with cold cell staining buffer and supernatant removed completely after the centrifugation. Human FcR Blocking Reagent (Miltenyi Biotech, Cat #130-059-901) was diluted according to the package insert instructions with cold cell staining buffer. To each sample 50 μl was added, mixed and incubated for 10 minutes at 4° C. The secondary antibody Goat F(ab′)2 Anti-Mouse IgG3 PE (Southern Biotech, Cat #1102-09) was diluted 1:25 in cold cell staining buffer. To each sample 50 μl was added, mixed and incubated for 30 minutes at 4° C. in the dark. […]
For determination of cell surface expression of CB2 on B-cells, median fluorescent intensity (MFI) was analyzed by gating around the CD45^+ CD3^− CD14^− CD19^+ B-cells (see gating strategy in FIG. 6A to FIG. 6E) and acquiring a minimum of 2000 events in this gate (FIG. 6F). With the lineage marker mix other cell populations like T-cells (CD45^+ CD3^+ CD14^−), Monocytes (CD45^+ CD3^− CD14^+), Basophils (CD45^+ CD3^− CD14^− CD19^− CD193^+ IgE^+), NK cells (CD45^+ CD3^− CD14^− CD19^− CD193^− IgE^− CD16^+ CD56^+), Eosinophils (CD45^+ CD16^−) and Neutrophils (CD45^+ CD16^+) could be analyzed.

[2] = target: T1, CB2; experiment: Phase I clinical trial CB2 target engagement on B-cells in healthy volunteers; format: in vivo; conditions: for time of nadir (lowest CB2 surface expression) post-dose: single oral dose
Method: FIG. 13: Arithmetic Mean (+SD) Percentage Change-from-Baseline (CFB) of CB2-Receptor Target Engagement on B-cells in Blood versus Time Following Single Oral Dose Administration of 0.75 mg to 300 mg RG7774 in the Fasted State (n=6 on active drug vs 2 on placebo per dose level).
FIG. 14: Arithmetic Mean (+SD) Percentage Change-from-Baseline (CFB) of CB2-Receptor Target Engagement on B-cells in Blood versus Time Following Single Oral Dose Administration of 100 mg RG7774 in fasted and fed state.
FIG. 15: Arithmetic Mean (+SD) Percentage Change-from-Baseline (CFB) of CB2-Receptor Target Engagement on B-cells in Blood versus Time Following Multiple Oral Dose Administration of 20 mg to 300 mg RG7774 once daily for 14 Days.
The clinical utility of the newly developed CB2 flow cytometry assay as a measure for target engagement in a clinical setting was confirmed by its successful implementation in a phase I clinical trial in healthy volunteers. In the clinical setting B/T-cell ratio was not used as it introduced higher variability relative to the baseline normalized B-cell data alone.
In a first step, oral administration of a single ascending dose (SAD) of RG7774 in the range between 0.75 mg and 300 mg in the fasted state was assessed. Following oral administration of RG774, the onset of CB2 internalization was rapid, with the nadir (lowest CB2 surface expression) achieved at 4 hours post-dose for doses below 10 mg RG7774, and at 1 hour post-dose for doses at 10 mg to 30 mg RG7774 (FIG. 13). For the two highest tested doses of 100 mg and 300 mg RG7774, the time to reach the nadir shifted with the area under the effect curve increasing. […] This indicates successful target engagement of RG7774 upon oral dosing. Furthermore, the assay was utilized to inform stopping rules for dose escalation in the SAD part of the first-in-human (FIH) trial.
In a third part of the FIH study, the effects of multiple ascending doses (MAD) of 20 mg to 300 mg RG7774 administered once daily over 14 days on CB2 internalization were investigated (FIG. 15).

[3] = 20 mg to 300 mg once daily over 14 days

T1 sequence (P34972 whole entry): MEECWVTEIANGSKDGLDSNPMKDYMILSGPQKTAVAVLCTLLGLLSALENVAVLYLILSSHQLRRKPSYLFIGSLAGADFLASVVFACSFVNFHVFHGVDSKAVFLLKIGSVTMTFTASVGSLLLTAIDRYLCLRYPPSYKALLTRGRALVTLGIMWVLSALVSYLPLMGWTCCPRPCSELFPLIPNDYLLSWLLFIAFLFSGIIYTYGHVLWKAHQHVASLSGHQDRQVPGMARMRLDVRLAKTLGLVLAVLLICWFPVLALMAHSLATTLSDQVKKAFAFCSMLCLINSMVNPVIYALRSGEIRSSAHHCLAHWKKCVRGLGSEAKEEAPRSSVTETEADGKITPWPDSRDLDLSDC

## Cn1nnnc1Cn1nnc2c(N3CC[C@H](O)C3)nc(C(C)(C)C)nc21 [RG7774, (S)-1-[5-tert-Butyl-3-(1-methyl-1H-tetrazol-5-ylmethyl)-3H-[1,2,3]triazolo [4,5-d]pyrimidin-7-yl]-pyrrolidin-3-ol]
[1]; Basophils (data not shown)
  reduction of the CB2 cell surface expression: can also be detected
[1]; Healthy Participants (working-age), reference group
  Fold change vs HPs of mean IC50 (CB2 on B-cells): 1
[1]; IC50, individual working-age healthy donors, whole blood 1 hour 37° C., B/T-cell CB2 MFI ratio
  IC50: 125 nM and 81.6 nM and 64.7 nM and 86.7 nM and 64.3 nM and 144 nM
[1]; Individual IC50 values, range over donors, healthy human participants
  IC50: 64.3 to 144 nM
[1]; T-cells, Monocytes, NK-cells, Eosinophils and Neutrophils (data not shown)
  reduction of the CB2 cell surface expression: has not been observed
[2]; [3]
  desensitization of CB2 internalization: no desensitization was observed
  steady-state of PD effect: steady-state was reached during the observation period
[2]; 100 mg single dose, fasted (n=8) vs fed (n=8)
  impact of food consumption on the pharmacodynamic (PD) effects: no relevant impact
[2]; after 14 days once daily, not yet fully reversed for the two highest doses
  time to reversal of reduction of CB2 surface receptor expression upon stopping the drug: ~1 week
[2]; single ascending dose 0.75 mg to 300 mg, fasted
  extent of CB2 internalization (CB2 target engagement): increased dose-dependently
[2]; fasted, doses at 10 mg to 30 mg
  time of nadir (lowest CB2 surface expression) post-dose: 1 h
[2]; fasted, doses below 10 mg
  time of nadir (lowest CB2 surface expression) post-dose: 4 h
